Results on three molecules are retold here after patent US4360525A, “Dibenzazepine derivatives, pharmaceutical compositions containing them, and methods of use” (Sandoz Ltd., priority 1979, dated 1982).

As a reminder, the ED50 is the dose at which the effect has come halfway, by size or by number of responders.

Test [1] has as its system spontaneous motor activity. Briefly: inhibition of spontaneous motor activity in mice (Caviezel and Baillod). It counts as in vivo. The following applies: Mus musculus, po. The protocol: In particular, the compounds of the invention are useful as neuroleptic agents in the treatment of e.g. psychotic disturbances such as schizophrenia, as indicated in standard tests, e.g. by an inhibition of spontaneous motor activity in mice on p.o. administration of from about 1 to about 50 mg/kg animal body weight of the compounds in accordance with the principles of Caviezel and Baillod (Pharm. Acta Helv. (1958), 33, 465-484).

A further test has as its system sleep/wake cycle. As to the kind of experiment: sleep/wake cycle in the rat (H. Kleinlogel). The class given is in vivo. Conditions: 10 mg/kg p.o. The protocol: Additionally, the compounds on administration to mice of from about 0.1 to about 10 mg/kg i.p. inhibit the hypermotility induced by 4,α-dimethyl-m-tyramine (H 77/77) in a test carried out according to the principles of J. Buus Lassen, Psychopharmacologia 37, 331-340 (1974). The compounds also increase the sleep phase II in the sleep/wake cycle in the rat carried out according to the principles of H. Kleinlogel et al, European J. Pharmacol. 33, 159-163, 1975, on administration of from […]. Results obtained are e.g. as follows:
Additionally the compounds of the invention are useful as sleep-inducing, sleep-promoting and sleep-prolonging agents, as indicated in standard tests. For example, in one test according to the principles of H. Kleinlogel, European J. Pharmacol. 33, 159-163 (1975) an increase in the sleep phase II and a decrease of the wake phase is observed after administration to rats of from 0.5 to 80 mg/kg p.o. animal body weight of the compounds.

Each structure is given as a SMILES string.

`CSc1ccc2c(c1)N(CCC1CCCCN1C)c1ccccc1S2` (stereo not shown) [Thioridazine] came in with an ED50 in test [1] of 26 mg/kg.
As to `CN1CCN(C2=Nc3cc(Cl)ccc3Nc3ccccc32)CC1` [Clozapine], the “Sleep phase II % of control” value with sleep/wake cycle was 144 % of control.
In the case of `CN1CCC(N2Cc3cc(Cl)ccc3Sc3ccccc32)CC1` [Example 1, 2-Chloro-10-(1-methyl-piperidin-4-yl)-10,11-dihydro-dibenzo[b,f][1,4]thiazepine], in test [1], it took a dose of 26 mg/kg to reach the 50% effect level (ED50). Besides, the “Sleep phase II % of control” value in the test with sleep/wake cycle is 131 % of control.
